Experimental data from patent US6512099B2, “Roselipin derivative” (Kitasato Institute, priority 2001, dated 2003).

How the values were obtained:
[1] = test system: Raji cell derived from human Burkitt lymphoma; experiment: Inhibitory activity against production of triacylglycerol in human-derived cell (Raji); format: cell-based; details: 0.5 h, [1-14C]oleic acid, 37° C., 30 minutes, read-out: concentration which inhibited 50% of production of triacylglycerol
Experimental: An influence on production of triacylglycerol was examined in accordance with a method by TOMODA et al. (Journal of Biological Chemistry, vol. 266, pp. 4,212 to 4,219, 1991) by use of a human-derived cell (Raji cell derived from human Burkitt lymphoma). 200 μl of 2.7×10^5 cells/ml of Raji cell solution [1-^14C]oleic acid (0.02 μCi) was allowed to react at 37° C. for 30 minutes. After all lipids were extracted from a mixed solution of chloroform and methanol (mixing ratio=1:2), a measurement was carried out by use of the same method as used for the inhibitory activity against diacylglycerol acyltransferase derived from a rat. The concentrations of the roselipin R-3A, R-3B, R-4 and R-5 compounds which inhibited 50% of production of triacylglycerol were measured.

[2] = target: diacylglycerol acyltransferase; experiment: Inhibitory activity against diacylglycerol acyltransferase derived from rat (rat liver microsome fraction); format: biochemical; details: 23° C., 15 minutes, read-out: concentration which inhibited 50% of the diacylglycerol acyltransferase
Experimental: A diacylglycerol acyltransferase activity was measured by means of a partially modified version of a method of Mayorek and Bar-Tana (Journal of Biological Chemistry, vol. 260, pp. […], 1985). That is, using a microsome fraction prepared from a rat liver as an enzyme source, 0.75 mM 1,2-dioleoyl-sn-glycerol and 30 μM [1-^14C]palmitoyl-CoA (0.02 μCi) were added to 175 mM tris-hydrochloric acid (HCl)(pH: 8.0) buffer containing 8 mM MgCl2, 1 mg/ml bovine serum albumin and 2.5 mM diisopropyl fluorophosphonate to a total volume of 200 μL. The mixture was allowed to react at 23° C. for 15 minutes. […] Thereafter, the radioactivity of a triacylglycerol fraction was measured by an RI radio scanner (manufactured by AMBIS CO., LTD.) to measure the diacylglycerol acyltransferase activity.

Pyricularia oryzae KB180 = format: cell-based; details: 10 μg on 6 mm filter paper
Mucor racemosus KF223 = experiment: Paper disk growth inhibition circle; format: cell-based; details: 10 μg on 6 mm filter paper
[3] = test system: Acholeplasma laidlawii KB174; experiment: Paper disk growth inhibition circle; format: cell-based; details: 10 μg on 6 mm filter paper
Bacillus subtilis KB27 = experiment: Paper disk growth inhibition circle; format: cell-based; details: Bacillus subtilis KB27 (synthetic medium); 10 μg on 6 mm filter paper

Structure (SMILES) | IC50 [1] [µM] | IC50 [2] [µM] | Diameter of Inhibition Circle (Pyricularia oryzae KB180) [mm] | Diameter of Inhibition Circle (Mucor racemosus KF223) [mm] | Diameter of Inhibition Circle [3] [mm] | Diameter of Inhibition Circle (Bacillus subtilis KB27) [mm]
CCC(C)CC(C)CC(C)C(O)C(C)/C=C(\C)C(O)C(C)/C=C(\C)C(O)C(C)/C=C(\C)C(=O)OC[C@@H](O)[C@H](O)[C@H](O)CO (stereo partly shown) [roselipin R-3B] | 10 | 33 |  |  |  | 
CCC(C)CC(C)CC(C)C(O)C(C)/C=C(\C)C(O)C(C)/C=C(\C)C(OC)C(C)/C=C(\C)C(=O)OC (stereo not shown) [roselipin R-5] | 250 | > 984 |  |  |  | 
CCC(C)CC(C)CC(C)C(O[C@@H]1OC(CO)[C@@H](O)C(O)C1O)C(C)/C=C(\C)C(O)C(C)/C=C(\C)C(O)C(C)/C=C(\C)C(=O)OC (stereo partly shown) [roselipin R-4] | 200 | > 762 | 16 | 12 |  | 
CCC(C)CC(C)CC(C)C(O)C(C)/C=C(\C)C(O)C(C)/C=C(\C)C(O)C(C)/C=C(\C)C(=O)OC[C@@H](O)[C@@H](O)[C@H](O)CO (stereo partly shown) [roselipin R-3A] | 11 | 60 |  | 14 | 10 | 10
